In brackets after ≈: the same amount, converted by molar mass.
Assays:
[1] = molecular target: Epidermal growth factor receptor (Homo sapiens, UniProt P00533); experiment: Inhibition of EGFR (unknown origin) by Z -LYTE assay
[2] = Half-life in human liver microsomes at 3 uM by LC-MS/MS analysis; assay type: ADME
[3] = Intrinsic clearance in human liver microsomes at 3 uM by LC-MS/MS analysis; assay type: ADME; details: read-out: CLH
[4] = Aqueous solubility of compound in 0.01 M PBS buffer at pH 7.4 after 2 hrs by turbidimetric assay; assay type: physicochemical
[5] = in vitro; details: human, Caco-2
Description: Efflux ratio of permeability from basolateral to apical side over apical to basolateral side in human Caco2 cells at 10 uM by LC-MS/MS analysis

[6] = organism: Danio rerio; experiment: Toxicity in zebrafish embryo assessed as blood circulation defects; assay type: organism-based; details: in vivo
[7] = Toxicity in zebrafish embryo assessed as morphological defects for 3.5 days; assay type: organism-based, Danio rerio
[8] = tested on: Danio rerio; experiment: Toxicity in zebrafish embryo assessed as cardiac oedema; assay type: organism-based; details: in vivo
[9] = organism: Danio rerio; experiment: Toxicity in zebrafish embryo assessed as kinked tail; assay type: organism-based; details: in vivo
[10] = organism: Danio rerio; experiment: Toxicity in zebrafish embryo assessed mortality after 50 to 70 hrs; assay type: organism-based; details: in vivo
[11] = Toxicity in zebrafish embryo assessed as survival for 3.5 days; assay type: organism-based, Danio rerio; details: in vivo
[12] = organism: Danio rerio; experiment: Toxicity in zebrafish embryo assessed as effect on morphology at <12.5 uM; assay type: organism-based; details: in vivo
[13] = organism: Danio rerio; experiment: Toxicity in zebrafish embryo assessed mortality measured for 24 hrs; assay type: organism-based; details: in vivo

Chain of Epidermal growth factor receptor (P00533 whole entry): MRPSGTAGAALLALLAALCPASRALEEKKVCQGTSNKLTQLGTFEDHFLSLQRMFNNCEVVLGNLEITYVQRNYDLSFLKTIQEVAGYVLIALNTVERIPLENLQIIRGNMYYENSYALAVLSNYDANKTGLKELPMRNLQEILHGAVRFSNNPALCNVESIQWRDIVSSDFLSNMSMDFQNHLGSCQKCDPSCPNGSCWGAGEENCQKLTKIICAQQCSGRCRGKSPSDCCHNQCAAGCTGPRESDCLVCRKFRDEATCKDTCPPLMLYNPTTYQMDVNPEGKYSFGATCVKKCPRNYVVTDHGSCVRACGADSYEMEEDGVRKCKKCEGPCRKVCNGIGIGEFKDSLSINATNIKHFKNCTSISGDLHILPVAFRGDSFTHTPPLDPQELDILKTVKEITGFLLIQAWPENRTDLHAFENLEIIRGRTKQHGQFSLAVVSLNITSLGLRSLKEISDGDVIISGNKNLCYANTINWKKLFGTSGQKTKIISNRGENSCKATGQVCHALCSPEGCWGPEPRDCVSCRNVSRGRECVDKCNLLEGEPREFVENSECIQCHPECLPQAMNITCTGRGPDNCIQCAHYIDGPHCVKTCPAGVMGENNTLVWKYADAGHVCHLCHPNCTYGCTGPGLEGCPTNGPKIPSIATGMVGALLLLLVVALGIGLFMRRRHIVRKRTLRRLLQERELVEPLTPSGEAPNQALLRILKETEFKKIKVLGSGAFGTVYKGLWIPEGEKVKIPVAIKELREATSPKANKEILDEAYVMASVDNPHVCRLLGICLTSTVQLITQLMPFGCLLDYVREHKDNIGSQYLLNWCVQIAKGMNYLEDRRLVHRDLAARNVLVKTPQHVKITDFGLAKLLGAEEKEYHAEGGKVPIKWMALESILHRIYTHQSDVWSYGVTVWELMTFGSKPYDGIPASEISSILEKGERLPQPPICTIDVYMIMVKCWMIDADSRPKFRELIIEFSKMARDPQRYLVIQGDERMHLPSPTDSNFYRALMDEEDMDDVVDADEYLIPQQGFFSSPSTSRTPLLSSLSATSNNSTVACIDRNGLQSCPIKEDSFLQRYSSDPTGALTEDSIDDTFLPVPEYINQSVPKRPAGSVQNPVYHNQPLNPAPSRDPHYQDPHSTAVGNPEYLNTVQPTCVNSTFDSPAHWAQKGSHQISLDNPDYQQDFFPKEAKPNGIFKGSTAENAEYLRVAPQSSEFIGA

Compound: COc1cc(C(=O)NCCN(C)C)ccc1-c1cc2c(N[C@H](C)c3ccccc3)ncnc2s1
- IC50 [1]: 0.5 nM
- half-life at 3 µM [2]: 3.78 h
- microsomal CLint at 3 µM [3]: 6.1 µL/min/mg
- solubility kinetic at 2 h [4]: > 100 µM
- efflux ratio at 10 µM [5]: 18

Compound: C[C@@H](Nc1ncnc2sc(-c3cccc(C=O)c3)cc12)c1ccccc1
- IC50 [1]: 6 nM

Compound: OCc1cccc(-c2cc3c(N[C@H](CO)c4ccccc4)ncnc3s2)c1
- IC50 [1]: 3 nM

Compound: COc1cc(CO)ccc1-c1cc2c(NCc3ccccc3)ncnc2s1
- IC50 [1]: 5 nM

Compound: COC(=O)c1ccc(-c2cc3c(N[C@H](C)c4ccccc4)ncnc3s2)c(OC)c1
- IC50 [1]: 20 nM

Compound: COc1c(C(=O)NCCN(C)C)cccc1-c1cc2c(N[C@H](C)c3ccccc3)ncnc2s1
- IC50 [1]: 3 nM

Compound: COc1cccc(OC)c1-c1cc2c(N[C@H](CO)c3ccccc3)ncnc2s1
- Activity [6]: Toxic
- EC50 at 3.5 days [7]: 12000 nM
- IC50 [1]: 0.9 nM
- half-life at 3 µM [2]: 0.567 h
- microsomal CLint at 3 µM [3]: 41 µL/min/mg
- Activity [8]: Toxic
- Activity [9]: Toxic
- Activity [10]: Toxic
- LC50 at 84 h [11]: 18000 nM

Compound: C[C@@H](Nc1ncnc2sc(-c3cccc(C(=O)NCCN(C)C)c3)cc12)c1ccccc1
- IC50 [1]: 0.9 nM
- half-life at 3 µM [2]: 1.58 h
- solubility kinetic at 2 h [4]: > 100 µM
- efflux ratio at 10 µM [5]: 8.9

Compound: COC(=O)c1cccc(-c2cc3c(N[C@H](C)c4ccccc4)ncnc3s2)c1OC
- IC50 [1]: 9 nM

Compound: C[C@@H](Nc1ncnc2sc(-c3ccc(C(N)=O)cc3)cc12)c1ccccc1
- IC50 [1]: 7 nM

Compound: COc1cc(C=O)ccc1-c1cc2c(Nc3ccc(F)c(Cl)c3)ncnc2s1
- IC50 [1]: 5 nM

Compound: C[C@@H](Nc1ncnc2sc(-c3ccc(C(=O)O)cc3)cc12)c1ccccc1
- IC50 [1]: 19 nM

Compound: COC(=O)c1cc(OC)c(-c2cc3c(N[C@H](C)c4ccccc4)ncnc3s2)c(OC)c1
- IC50 [1]: 4 nM

Compound: COc1c(C=O)cccc1-c1cc2c(N[C@H](C)c3ccccc3)ncnc2s1
- IC50 [1]: 21 nM

Compound: OCc1ccc(-c2cc3c(NCc4ccccc4)ncnc3s2)cc1
- IC50 [1]: 48 nM

Compound: C[C@@H](Nc1ncnc2sc(-c3ccc(CO)cc3F)cc12)c1ccccc1
- IC50 [1]: 13 nM

Compound: COc1cc(C(=O)NCCN(C)C)cc(OC)c1-c1cc2c(N[C@H](C)c3ccccc3)ncnc2s1
- IC50 [1]: 0.4 nM
- half-life at 3 µM [2]: 2.37 h
- microsomal CLint at 3 µM [3]: 9.7 µL/min/mg
- solubility kinetic at 2 h [4]: 65 µM (≈ 32.9 µg/mL)
- Activity [12]: Non-toxic
- Activity [13]: Toxic
- LC50 at 84 h [11]: 15000 nM
- efflux ratio at 10 µM [5]: 40

Compound: C[C@@H](Nc1ncnc2sc(-c3ccc(C=O)cc3F)cc12)c1ccccc1
- IC50 [1]: 59 nM

Compound: COc1cc(C=O)ccc1-c1cc2c(NCc3ccccc3)ncnc2s1
- IC50 [1]: 6 nM

Compound: COC(=O)c1ccc(OC)c(-c2cc3c(N[C@H](C)c4ccccc4)ncnc3s2)c1
- IC50 [1]: 7 nM

Compound: C[C@@H](Nc1ncnc2sc(-c3cccc(C(=O)O)c3)cc12)c1ccccc1
- IC50 [1]: 8 nM

Compound: COc1cccc(OC)c1-c1cc2c(N[C@H](C)c3ccccc3)ncnc2s1
- IC50 [1]: 2 nM

Compound: C[C@@H](Nc1ncnc2sc(-c3ccc(S(C)(=O)=O)cc3)cc12)c1ccccc1
- IC50 [1]: 41 nM

Compound: OC[C@@H](Nc1ncnc2sc(-c3ccccc3)cc12)c1ccccc1
- IC50 [1]: 9 nM

Compound: COc1cc(C(N)=O)ccc1-c1cc2c(N[C@H](C)c3ccccc3)ncnc2s1
- IC50 [1]: 2 nM

Compound: C[C@@H](Nc1ncnc2sc(-c3cccc(C(N)=O)c3)cc12)c1ccccc1
- IC50 [1]: 5 nM

Compound: COc1c(CO)cccc1-c1cc2c(N[C@H](C)c3ccccc3)ncnc2s1
- IC50 [1]: 1.5 nM

Compound: COc1ccc(C=O)cc1-c1cc2c(N[C@H](C)c3ccccc3)ncnc2s1
- IC50 [1]: 3 nM

Compound: COc1ccc(CO)cc1-c1cc2c(N[C@H](C)c3ccccc3)ncnc2s1
- IC50 [1]: 5 nM

Compound: COc1cccc(-c2cc3c(N[C@H](C)c4ccccc4)ncnc3s2)c1OC
- IC50 [1]: 13 nM

Compound: COc1cc(F)ccc1-c1cc2c(N[C@H](C)c3ccccc3)ncnc2s1
- IC50 [1]: 6 nM

Compound: C[C@@H](Nc1ncnc2sc(-c3cccc(S(C)(=O)=O)c3)cc12)c1ccccc1
- IC50 [1]: 26 nM

Compound: OCc1ccc(-c2cc3c(Nc4ccccc4)ncnc3s2)cc1
- IC50 [1]: 21 nM

From ChEMBL document CHEMBL3758163, “Extended structure-activity study of thienopyrimidine-based EGFR inhibitors with evaluation of drug-like properties” (Eur J Med Chem, 2016)
